This data set relates to prostate. Description: Photodynamic therapy of the dog prostate after direct intraprostatic injection of lemuteporfin and transurethral 690 nm light. The format is in vivo. The note with it: mature intact mixed-breed dogs. The protocol: Eight mature, intact, mixed-breed dogs are premedicated with butorphanol (0.4 mg per kilogram of body weight), acepromazine (0.1 mg/kg), and atropine (0.4 mg/kg), all given by intramuscular injection. Anesthesia is induced with intravenous thiopental sodium (8 mg per 0.4536 kilograms of body weight) and maintained with inhaled isoflurane and oxygen (dosage as required for anesthetic effect). Lemuteporfin for injection (A-EA6 in U.S. Pat. No. 5,929,105) is reconstituted with Water for Injection to give a stock concentration of 2.0 mg/ml and diluted with 5% Dextrose in water to a concentration 0.2 mg/ml. A standard cystoscope is inserted into the urethra. Injections of the drug are then delivered to the prostate using a commercially available transurethral injection device (InjecTx™, San Jose, Calif., USA) which is compatible with the cystoscope. Two injections of 0.5 ml are given to each left lobe of the prostate and 2 injections of 1.0 ml are given to each right lobe of the prostate. The transurethral injection device is then removed and a guidewire is inserted through the working channel of the cystoscope. The activation-energy delivery device comprises: a cylindrical fibre optic with a 200 μm diameter core, a 25 mm long diffuser, and a power rating of 175 mW/cm (maximum power load, 437.5 mW); a reflective-cap fibre-centering balloon catheter with a 20 mm treatment window supplied with a guidewire for positioning the device in the urethra; and a 3 W 690 nm red-light diode laser (AOC, South Plainfield, N.J., USA). The catheter is inserted and positioned using the guidewire which is fed through an internal channel of the catheter. Once the catheter is in position the balloon is inflated to secure it in place. The guidewire is removed from the catheter and the fiber optic diffuser is inserted into the catheter and secured in place. The treatment assembly is positioned in the urethra using ultrasonic guidance. Ultrasound is also used to position the needles for four percutaneous intraprostatic injections (two per lobe separated by longitudinally by 1 cm). […]

[1] abbreviates: 0.2 mg/ml intraprostatic injections, 690 nm light 25, 50 or 100 J/cm^2, after seven days.

For `C=Cc1c(C)c2cc3nc(cc4[nH]c(cc5nc(cc1[nH]2)C(C)=C5CCC(=O)OCCO)c(CCC(=O)OCCO)c4C)[C@@]1(C)C3=CC=C(C(=O)OC)[C@H]1C(=O)OC` [Lemuteporfin, lemuteporfin], under setting [1], the “Bowel, bladder, and prostate sizes” value is given as “within normal ranges”; the “PDT-associated damage in the urethra” value is listed as “no significant PDT-associated damage”. For the same compound, the “PDT-associated tissue damage in the target tissue (prostates)” value (0.2 mg/ml, 2 x 0.5 ml left lobe, 2 x 1.0 ml right lobe, 690 nm light 25, 50 or 100 J/cm^2 15 minutes after last injection, prostates harvested after seven days) is listed as “evidence of PDT-associated tissue damage in the target tissue”.

The values are drawn from patent US20080071331A1, “Photodynamic Therapy For The Treatment Of Prostatic Conditions” (QLT Inc., priority 2004, published 2008).
